Results reported in patent US12187733B1, “5-(Substitutedphenyl)-7-Imino-7,8-Dihydropyrimido[4,5-d]pyrimidine-2,4(1H,3H)-dione analogues as anti-inflammatory agents” (KING FAISAL UNIVERSITY, priority 2023, dated 2025).

Experiment: Anti-inflammatory activity
Excerpt: Anti-Inflammatory Activity

Row | Structure (SMILES) | IC50
1 | [H]/N=c1\nc(-c2ccc(OC)c(O)c2)c2c(=O)n(C)c(=O)n(C)c2[nH]1 [Compound 4d, 5-(3-Hydroxy-4-methoxyphenyl)-7-imino-1,3-dimethyl-7,8-dihydropyrimido[4,5-d]pyrimid-ine-2,4 (^1H,3H)-dione] | 0.106 µM
2 | [H]/N=c1\nc(-c2ccc(OC)c(O)c2)c2c(=O)[nH]c(=O)[nH]c2[nH]1 [Compound 4c, 5-(3-Hydroxy-4-methoxyphenyl)-7-imino-7,8-dihydropyrimido[4,5-d]pyrimidine-2,4 (^1H,3H)-dione] | 0.218 µM
3 | [H]/N=c1\nc(-c2ccc(OCc3ccccc3)cc2)c2c(=O)[nH]c(=O)[nH]c2[nH]1 [Compound 4b, 5-(4-(Benzyloxy)phenyl)-7-imino-7,8-dihydropyrimido[4,5-d]pyrimidine-2,4 (^1H,3H)-dione] | 0.0909 µM
4 | [H]/N=c1\nc(-c2cccc(OCc3ccccc3)c2)c2c(=O)[nH]c(=O)[nH]c2[nH]1 [Compound 4a, 5-(3-(Benzyloxy)phenyl)-7-imino-7,8-dihydropyrimido[4,5-d]pyrimidine-2,4 (^1H,3H)-dione] | 0.248 µM
